Results reported in patent publication US20220273752A1, “MODULATION OF DENDRITIC CELL FUNCTION BY THE PHOSPHOLIPID MESSENGER LPA” (Cornell University, priority 2019, published 2022).

How the values were obtained:
Type in all cases: cell-based, murine
BMDCs = experiment: RT-qPCR of type-I IFN target genes in BMDCs
Protocol: FIG. 11A-11H illustrate that LPA downregulates type-I IFN target genes in dendritic cells. BMDCs were left untreated or incubated with LPA (100 uM) for 2 hours and 6 hours, and gene expression was determined by RT-qPCR. **P<0.001, ***P<0.0005, ****P<0.0001. FIG. 11A illustrates downregulation of Ddx58 mRNA (encoding DExD/H-box helicase 58) relative to Actb expression at 2 hours and 6 hours after LPA treatment of BMDCs. FIG. 11B illustrates downregulation of Ifit1 mRNA (encoding interferon-induced protein with tetratricopeptide repeats 1) relative to Actb expression at 2 hours and 6 hours after LPA treatment of BMDCs. FIG. 11C illustrates downregulation of Ifit2 mRNA (encoding interferon-induced protein with tetratricopeptide repeats 2) relative to Actb expression at 2 hours and 6 hours after LPA treatment of BMDCs. FIG. 11D illustrates downregulation of Isg15 mRNA (interferon-stimulated gene 15) relative to Actb expression at 2 hours and 6 hours after LPA treatment of BMDCs. FIG. 11E illustrates downregulation of Ciita mRNA (encoding a Class II Major Histocompatibility Complex Transactivator) relative to Actb expression at 2 hours and 6 hours after LPA treatment of BMDCs. FIG. 11F illustrates downregulation of Oas1a mRNA (encoding 2′-5′ oligoadenylate synthetase 1A) relative to Actb expression at 2 hours and 6 hours after LPA treatment of BMDCs. […]

[1] = tested on: bone marrow derived DCs (BMDCs); experiment: LPA receptor gene expression in BMDCs by RNA-seq; design: Lpar1 expression level / Lpar3 expression level / Lpar4 expression level / Lpar5 expression level / Lpar6 expression level: unit not given here; details: RNA-seq relative expression
Protocol: FIG. 1 illustrates relative expression levels of genes encoding lysophosphatidic acid (LPA) receptors in the indicated murine dendritic cell (DC) populations, as determined by RNA-seq. Ovarian cancer DCs were sorted from tumor locations of mice bearing ID8-based metastatic ovarian carcinoma for 24 days.
Relative expression levels of genes encoding LPA receptors in the indicated dendritic cell (DC) populations was determined by RNA-seq.
FIG. 1 illustrates that murine bone marrow derived DCs (BMDCs) as well as DCs infiltrating ovarian tumors expressed significant levels of genes encoding various LPA receptors, particularly Lpar6 (see also Table 3).

[2] = tested on: TBK1 and IRF3 proteins in BMDCs; experiment: Western blot of TBK1 and IRF3 phosphorylation in BMDCs; details: LPS- or Poly(I:C)-treated BMDCs; compared with untreated
Protocol: The activation status of signaling pathways implicated in the optimal induction of type-I IFNs was then evaluated.

With lysophosphatidic acid [LPA] the “type-I IFN target gene expression (Ddx58, Ifit1, Ifit2, Isg15, Ciita, Oas1a, Oas1g, Oas2)” value (BMDCs; BMDCs, LPA 100 uM, 2 hours and 6 hours) was “decreased”, the “expression of type-I IFN-related genes in BMDCs exposed to Talazoparib-treated ovarian cancer cells” value (BMDCs; coculture) was “prevented expression” and the Lpar1 expression level ([1]; BMDC + LPA (2 hr.)) was 8.540. It also gave a Lpar2 expression level ([1]; BMDC + LPA (2 hr.)) of 0.303, a Lpar3 expression level ([1]; BMDC + LPA (2 hr.)) of 0.300 and a Lpar4 expression level ([1]; BMDC + LPA (2 hr.)) of 0.040. For the same substance, the Lpar5 expression level ([1]; BMDC + LPA (2 hr.)) was 1.517, the Lpar6 expression level ([1]; BMDC + LPA (2 hr.)) was 62.313 and the Lpar1 expression level ([1]; BMDC + LPA (6 hr.)) was 2.240. The Lpar2 expression level ([1]; BMDC + LPA (6 hr.)) was 0.353, the Lpar3 expression level ([1]; BMDC + LPA (6 hr.)) was 0.253 and the Lpar4 expression level ([1]; BMDC + LPA (6 hr.)) was 0.007. For the same substance, the Lpar5 expression level ([1]; BMDC + LPA (6 hr.)) was 2.837, the Lpar6 expression level ([1]; BMDC + LPA (6 hr.)) was 72.007 and the “phosphorylation of TBK1 and IRF3 proteins” value [2] was “inhibited phosphorylation”.
